Data taken from article PMC12005787, “Synthetic Lethality of SHP2 and XIAP Suppresses Proliferation and Metastasis in KRAS‐mutant Nonsmall Cell Lung Cancer” (Advanced Science, 2025).

What was measured:
[1] = tested on: NCI-H2122, A549, and NCI-H1944 cells; assay: Cell senescence β-galactosidase staining; type: cell-based, human; details: NCI‐H2122 cells; candidate drugs 10 μM
Experimental: Cell senescence β-galactosidase staining
NCI-H2122, A549, and NCI-H1944 cells in the logarithmic growth phase were seeded into 48-well plates and cultured overnight. The supernatant was aspirated and fresh serum-free (0%), low-serum (3%), or regular serum (10%) medium with different drugs was added for 48 h. When the supernatant was discarded, β-galactosidase staining fixation fluid were added for 15 min and β-galactosidase staining solution were imported overnight at 37 ℃.
Finally, the staining results were recorded using an inverted microscope.

SHP2 = target: T1, SHP2 (Homo sapiens, UniProt Q06124); assay: Cellular thermal shift assay (CETSA); type: binding; details: NCI‐H2122 cell lysate
T1 construct: endogenous in cells; host or cells: NCI-H2122
T1 sequence (Q06124 1-593): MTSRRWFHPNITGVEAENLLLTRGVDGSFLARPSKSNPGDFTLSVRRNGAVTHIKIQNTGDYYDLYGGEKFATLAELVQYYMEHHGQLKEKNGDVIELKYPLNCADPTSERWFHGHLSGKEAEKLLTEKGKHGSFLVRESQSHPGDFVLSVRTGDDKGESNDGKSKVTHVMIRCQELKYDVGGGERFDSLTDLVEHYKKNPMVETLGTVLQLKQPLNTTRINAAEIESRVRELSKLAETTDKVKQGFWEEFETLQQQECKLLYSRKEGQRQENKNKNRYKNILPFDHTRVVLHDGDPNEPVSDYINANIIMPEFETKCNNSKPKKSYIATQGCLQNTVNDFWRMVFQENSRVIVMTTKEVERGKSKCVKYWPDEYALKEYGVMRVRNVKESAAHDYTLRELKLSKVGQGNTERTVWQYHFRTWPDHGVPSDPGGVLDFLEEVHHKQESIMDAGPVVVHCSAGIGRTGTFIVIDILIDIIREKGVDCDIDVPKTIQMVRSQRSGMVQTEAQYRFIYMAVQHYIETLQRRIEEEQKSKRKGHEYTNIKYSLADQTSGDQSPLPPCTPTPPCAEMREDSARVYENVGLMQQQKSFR
Experimental: (§1) NCI‐H2122 cells were harvested and resuspended with pre‐cooled PBS containing 1% cocktail, which was then frozen in liquid nitrogen for 5 min and thawed in a water bath at 37 °C for 5 min for three repetitions. The supernatant was collected via centrifugation at 4 °C (15 000 × g, 20 min), divided into two equal portions; one was added with test drugs or various concentrations of embelin, and the other was added with DMSO as control and subsequently incubated at 25 °C for 30 min. All samples were heated at temperatures ranging from 52–70 °C for 3 min, and subsequently in an ice bath for 3 min and collected by centrifugation at 4 °C (15 000 × g, 20 min), and added with protein sampling buffer at 100 °C for 5 min, followed by analysis of protein stability using western blotting.

A549 and NCI‐H2122 cells = assay: Cell proliferation in monolayer culture (CCK-8); type: cell-based, human
Experimental: (§2) For the adherent cell viability assay, cells in the logarithmic growth phase were seeded in 96-well culture plates at a density of 5×103 well-1 and incubated overnight. Diluted compounds or DMSO were added, or specific treatments were incubated at 37 °C and 5% CO2 for 24 h or 48 h. Cell viability was determined using CCK-8 or CellLightTM Cell Viability Assay Kit, according to the manufacturer's protocol. The luminescence signals of the treated samples were normalized to those of the DMSO group. […]
Figure S7. Targeting SHP2 and XIAP produces a synthetic lethal effect. (A) Effects of NSC-87877 on cell viability of A549 and NCI-H2122 cells after 24 and 48 h were determined using the CCK-8. Bars, ± SEM. The curves were plotted using a variable slope (four-parameter) non-linear fit. (B, E, F, and I) Effects of Na3VO4 (B), birinapant (E), BV-6 (F), and LCL161 (I) on cell viability of human NCI-H2122 cells at 48 h were determined using the CCK-8. *p < 0.05, **p < 0.01 and ***p < 0.001 compared to control group (unpaired two-tailed Student’s t-test).(C, G) Effects of SHP099 (C) and GDC-0152 (G) on cell viability after 24 and 48 h were determined using the CCK-8. Bars, ± SEM. The curves were plotted using a variable slope (four-parameter) non-linear fit.(D, H) Effects of SHP099 (D) and GDC-0152 (H) on cell viability were determined after 48 h using intracellular ATP chemiluminescence. **p < 0.01 and ***p < 0.001 compared to control group (unpaired two-tailed Student’s t-test).(J) Effects of SHP099 and GDC-0152 separately and in combination, and the effect of embelin for 24 h on the cell viability were assessed using intracellular ATP […]
tailed Student’s t-test).(K) Effects of SHP099 and GDC-0152 separately and in combination with […] on the cell viability of human KRAS-WT and -mutant cells were assessed using a colony formation assay. (L, M) A549 and NCI-H2122 cells were instantaneously transfected with siPTPN11 and siXIAP separately and together for 24 h under

[2] = tested on: KRAS‐mutant NSCLC cells in 3D culture; assay: Cell proliferation in 3D cell culture (ATP chemiluminescence); type: cell-based
Experimental: (§3) supplies are listed in Supplementary Table S5. […]
For the adherent cell viability assay, cells in the logarithmic growth phase were seeded in 96-well culture plates at a density of 5×103 well-1 and incubated overnight. Diluted compounds or DMSO were added, or specific treatments were incubated at 37 °C and 5% CO2 for 24 h or 48 h. Cell viability was determined using CCK-8 or CellLightTM Cell Viability Assay Kit, according to the manufacturer's protocol. The luminescence signals of the treated samples were normalized to those of the DMSO group.
For spherical cell viability assays, cells in the logarithmic growth phase were inoculated ata density of 4×10^3 well-1 into 96-well spherical cell microplates and incubated at 37 °C, 5% CO2 for 24 h or 48 h. Cell viability was measured using the CellTiter-Glo® Luminescent Cell Viability 3D Cell Viability Assay Kit, according to the manufacturer’s protocol. The remaining steps were the same as those described above. […]
Figure S7. Targeting SHP2 and XIAP produces a synthetic lethal effect. (A) Effects of NSC-87877 on cell viability of A549 and NCI-H2122 cells after 24 and 48 h were determined using the CCK-8. Bars, ± SEM. […]
tailed Student’s t-test).(K) Effects of SHP099 and GDC-0152 separately and in combination with […] on the cell viability of human KRAS-WT and -mutant cells were assessed using a colony formation assay. […]

NCI‐H2122 tumor = assay: NCI-H2122 subcutaneous transplantation tumor model; type: in vivo, BALB/c‐nu mouse; details: i.p., q2d
Experimental: NCI‐H2122 cells in the logarithmic growth phase were collected by mixing serum‐free RMPI‐1640 medium and Matrigel matrix gel, and injected subcutaneously into the right axilla of thymus‐less male BALB/c‐nu nude mice. Tumor volume was calculated according to V = ab^2/2 (where a and b are the long and short diameters of the tumor, respectively), and body weight was recorded every 3 days. When the tumor volume reached 100 mm^3, the mice were randomly divided into six groups (ten mice in each group): Control group (i.p, q2d), SHP099 (20 mg kg^−1, i.p, q2d) group, GDC‐0152 (20 mg kg^−1, i.p, q2d) group, SHP099 (20 mg kg^−1, i.p, q2d) + GDC‐ 0152 (20 mg kg^−1, i.p, q2d) co‐administration group, embelin (20 mg kg^−1, i.p, q2d) medium‐dose group and embelin (30 mg kg^−1, i.p, q2d) high‐dose group. When the tumor volume reached 1000 mm^3, all experimental mice were sacrificed, and tumor tissues and major organs, such as the heart, liver, spleen, lungs, and kidneys, were collected for further study.

XIAP = target: T2, XIAP (Homo sapiens, UniProt P98170); assay: Cellular thermal shift assay (CETSA); type: binding; details: 56 and 62 ℃
T2 construct: endogenous in cells; host or cells: NCI-H2122
T2 sequence (P98170 whole entry): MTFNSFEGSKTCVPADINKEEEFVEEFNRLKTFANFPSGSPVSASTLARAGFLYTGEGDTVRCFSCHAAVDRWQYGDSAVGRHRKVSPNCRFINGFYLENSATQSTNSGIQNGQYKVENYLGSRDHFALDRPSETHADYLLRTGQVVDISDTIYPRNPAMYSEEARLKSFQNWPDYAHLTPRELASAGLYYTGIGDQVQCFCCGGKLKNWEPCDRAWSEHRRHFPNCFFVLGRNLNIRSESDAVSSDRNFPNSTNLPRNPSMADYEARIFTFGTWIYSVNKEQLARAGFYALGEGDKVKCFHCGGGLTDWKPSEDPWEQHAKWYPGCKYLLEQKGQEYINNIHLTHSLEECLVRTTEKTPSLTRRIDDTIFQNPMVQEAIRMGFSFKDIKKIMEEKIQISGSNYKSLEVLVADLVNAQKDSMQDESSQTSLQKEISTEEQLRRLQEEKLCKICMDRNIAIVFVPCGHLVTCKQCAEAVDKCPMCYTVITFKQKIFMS
Experimental: as §1

A549 cells = assay: Cell viability assay (CCK-8); type: cell-based; details: Homo sapiens; A549, KRAS G12S, 24 h; read-out: IC50 at 24 h
Experimental: as §3
(§4) KRAS-mutant and wild-type cells are listed in Supplementary Table S7.
as §2

NCI-H1975 cells = assay: Cell viability assay (CCK-8); type: cell-based; details: Homo sapiens, NCI-H1975, 24 h, NCI-H1975, RAS-wild type, EGFR L858R/T790M
Experimental: as §3, §4, §2

Row | Compound | induction of cell senescence [1] | effect on SHP2 protein stability (CETSA) (SHP2) | effect on cell proliferation in monolayer cell culture mode (A549 and NCI‐H2122 cells) | effect on XIAP protein stability (CETSA) (XIAP) | further results
1 | CN[C@@H](C)C(=O)N[C@H](C(=O)N1CCC[C@H]1C(=O)Nc1snnc1-c1ccccc1)C1CCCCC1 [GDC‐0152] | induced cellular senescence | did not affect SHP2 protein stability | almost no effect | – | effect on cell proliferation in 3D cell culture [2]: partially inhibited cell proliferation; effect on body weight of the mice (NCI‐H2122 tumor): little or no effect on the body weight; effect on weights of hearts, livers, lungs, and kidneys and structure of hearts and kidneys (NCI‐H2122 tumor): no significant effect
2 | CN[C@@H](C)C(=O)N[C@H](C(=O)N1CCC[C@H]1c1nc(C(=O)c2ccc(F)cc2)cs1)C1CCCCC1 [LCL‐161] | induced cellular senescence | did not affect SHP2 protein stability | almost no effect | – | –
3 | O=S(=O)(O)c1ccc2cc(N=Nc3cc(S(=O)(=O)O)c4cccnc4c3O)ccc2c1 [NSC‐87877] | – | – | almost no effect | did not affect XIAP protein stability | –
4 | [Na+].[Na+].[Na+].[O]=[V]([O-])([O-])[O-] [Na3VO4] | – | – | almost no effect | did not affect XIAP protein stability | –
5 | C#Cc1cccc(Nc2ncnc3cc(OCCOC)c(OCCOC)cc23)c1 [erlotinib] | – | – | – | – | IC50 (A549 cells): > 100 µM; IC50 (NCI-H1975 cells): > 100 µM
